Publication PMC11468675, “Near‐Infrared Bodipy‐Based Molecular Rotors for β‐Amyloid Imaging In Vivo” (Advanced Healthcare Materials, 2023)
“And” between values parts separate entries of the source, which are not always exact repeats. Equal values may be shown once.

Tests used:
[1] = biological target: Aβ aggregates; conditions: reported probe; ref (8); cited from earlier work
[2] = Hemolysis rate assay; type: cell-based; conditions: human, human red blood cells separated from whole blood, probe up to 100 µM, room temperature
Protocol: A cytotoxicity assay is one of the methods to evaluate the biocompatibility of probe molecules. Probes are generally considered to have low cytotoxicity when the cell viability is above 80%. Therefore, the cytotoxicity of TPyrBDP, TPipBDP, and THAIBDP was evaluated using PC12 cells using a standard MTT assay method. […] The hemolysis rate of probes is one of the common methods to evaluate the effect of probes on the blood of live animals. Therefore, the hemolysis rate of probes TPyrBDP, TPipBDP, and THAIBDP with blood samples was also evaluated. […] Therefore, the probes were suitable for subsequent cell experiments and animal experiments.
(§1) In Vitro Brain Slice Fluorescence Staining
The paraffin-embedded blank sections (5 μm) were immersed in x ylene for 5 min for deparaffinization and then washed with ethanol for 2 min and water for 5 min. The brain slices were incubated with 40 μL of 10 mg/ m L ThT for 5 min and washed with 50% ethanol solution for 3 min. Next, the brain sl ices were incubated with 40 μL of 1 μM probes for 20 min. After absorbin g th e residual liquid with dust-free paper, th e antifluorescence attenuating agent was added dropwise, and neutral gum was used for mounting. The slices were then placed under a laser confocal microscope (Lecia SP5) […]
Hemolysis Rate (HR) Assay
Human blood (1 m L, provided b y China-J apan Friendly Hospital, Beijing, China) was first diluted with 2 m L of PBS solution; the sample was centrifugated for 10 min (8000 rpm) and washed with PBS 5 times to separate red blood cells from serum. Finall y, the red blood cells were dispersed in 10 m L of P BS solution, from which 0.2 m L was taken, and 0.8 m L of different reagents (P BS, DI water, and 10, 20, 30, 50, and 100 μM of probes) was added. After mix ing evenl y, the samples were allowed to stand still for 3 h at room temperature and centrifuged (12,000 rpm, 5 min) to determine hemolysis circumstances. The supernatant (100 μL) was transferred to 96-well plates, and its ultraviolet absorption (Ex = 490 nm) was evaluated. […]

[3] = biological target: T1, Aβ1–42 aggregates (Homo sapiens, UniProt P05067); assay: Fluorescence-based saturation binding assay; conditions: 10% EtOH/PBS, triplicate
T1 construct: purchased Shanghai Macklin Biochemical Technology Co., Ltd

[4] = biological target: T1, Aβ1–42 aggregates; assay: Fluorescence enhancement assay with Aβ aggregates; type: binding; conditions: for Em, with Aβ / Em shift, with Aβ: 10% ethanol/PBS; for Em shift, with Aβ: + red shift, − blue shift; for Fluorescence enhancement (Fold = FL intensity probe+Aβ / probe): probe 1 μM in 10% EtOH/PBS, Aβ aggregates 33 µg mL−1
Text: Thioflavin‐T (ThT) is the gold standard probe, commonly used as an in vitro fluorescence stain to determine the existence of Aβ aggregates. The ThT probe has a typical D–A structure, and its HOMO and LUMO electron clouds are redistributed from the donor (HOMO) to the acceptor (LUMO), which is typical for ICT probes.^[ [46] ^] In addition, the single bond between the benzene ring in the ThT probe and the benzothiazole salt, and the N,N‐dimethylamino group attached to the benzene ring can rotate freely, resulting in ThT becoming a molecular rotor. After ThT binds to Aβ, the rotation of the molecular rotor is restricted, and most of the electrons in the excited state return to the ground state by radiative transition, resulting in a substantial increase in fluorescence. […] The fluorescence response of TPyrBDP, TPipBDP, and THAIBDP with Aβ1–42 aggregates and BSA was evaluated in PBS (10% ethanol) solution. The formation of Aβ1–42 aggregates was characterized by TEM. The morphology of Aβ1–42 aggregates was filamentous (Figure S25b, Supporting Information), while the morphology of Aβ1–42 oligomers was a point‐like structure with a minimum diameter 44 nm (Figure S25a, Supporting Information). The images confirmed that Aβ1–42 aggregates were prepared successfully. As shown in Figure 2c‐f and Table S1, Supporting Information, a 42.5‐fold enhancement of fluorescence was observed when TPyrBDP interacted with the Aβ1–42 aggregates. […] The results confirmed the calculation results in Figure 1. […] In Figure 1b, the three probes are inserted into the hydrophobic pocket of Aβ1–42 aggregates when they interact with Aβ1–42 aggregates, resulting in changes of λ em. The fluorescence response of BSA with probes may cause non‐specific fluorescence enhancement, thus generating false signals. Therefore, we evaluated the interaction between the three probes and BSA. […] The selectivity of TPyrBDP, TPipBDP, and THAIBDP to different ions and amino acids was also evaluated. […] The ions and amino acids had no influence on the fluorescence enhancement of the probes. To quantify the binding affinity (K d) of the probes to Aβ1–42 aggregates, fluorescence‐based saturation binding assays were conducted using Aβ1–42 aggregates. The lower the K d values, the better the affinities.
To a solution of HFIP (600 μL) was added hum an Aβ42 (1 mg). After that, the solution was ultrasonicall y t reated for 2 min to destroy the oligomer probabl y formed, followed b y placing the mixture into an ice bath for 2 h. The solution was dispensed 20 μL per cent rifuge tube, dried by nitro gen, and stored at −80 °C.
To a centrifuge tube (containing 33 μg of Aβ42) was added 540 μL of PBS and 1% hydrox yl amine solution (60 μL); the solution was s haken on a shaker (300 rpm) at 37 °C for 72-96 h to form the Aβ42 aggregates. The Aβ42 aggregates were characterized by transmission electron microscop y (TEM).
Fluorescence Enhancement Assay
To a solution of probes were added pretreated Aβ42 aggregates (33 μg) or bovine serum albumin (BSA). The mix ture (the final concentration of probes was 1μM in 10% EtOH/PBS) was immediatel y transferred to a fluorescence spectrophot ometer (U-3900H, HITACHI, J apan) to record their spectrum (Ex slit = 10 nm, Em slit = 20 nm).
The probes alone (1μM in 10% EtOH/PBS), PBS, and BSA were also tested under the same conditions. The fluorescence enhancem ent was calculated usin g the followin g formula: fold = the fluorescence intensit y of the probe with Aβ42 or BSA/the fluorescence intensit y of probe alone. […]
(1 picture or pasted object on this page, not shown here)

[5] = system: Aβ1–42 aggregates in PC12 cells; assay: Cell imaging of Aβ1–42 aggregates, co-staining with ThT; type: cell-based
Text: PC12 cells were used to study the affinity between TPipBDP and Aβ1–42 aggregates. Aβ1–42 aggregates have great neurotoxicity to interfere with the normal function of the brain. […] To study the imaging of TPipBDP with Aβ1–42 aggregates, the imaging effect of TPipBDP with Aβ1–42 aggregates was studied in PC12 cells. […] After adding Aβ1–42 aggregates to PC12 cells, some smaller‐than‐cell green fluorescence (ThT) and red fluorescence (TPipBDP) spots were observed. These smaller‐than‐cell bright fluorescence spots were Aβ1–42 aggregates. The Aβ1–42 aggregates can be clearly observed in the bright field image. […]
After that, the gradient concentration of probes or Aβ was removed and MTT (5× MTT was diluted into 1× MTT using dilution buffer, 50 μL per well) was added; t he mix ture was incubated at 37 °C for 4 h. […] The cell viabilit y was determined by a microplate reader at 490 nm.
To a centrifuge tub e (containing 1 mg of Aβ42) was added 180 μL of DMSO and 720 μL of PBS (pH = 7.2-7.4, Hyclone) and 1% hydrox ylamine solution (100 μL); the solution was shaken on a shaker (300 rpm) at 37 °C for 7 da ys to form the Aβ42 aggregates. Initial peptide concentrations were determined spectrophotometricall y at 280 nm, using an extinction coefficient of 1280 M-1cm-1. […]

[6] = Cytotoxicity MTT assay; type: cell-based; conditions: rat, PC12 cells, read-out: Cell viability
Protocol: The cells used for the cyt otox icit y t est were PC12, purchased from the Chinese National Infrastructure of Cell Line Resource. The experiment was divid ed into two parts, cell culture, and c yt otox icit y test. The PC12 cells were first cultured in cell culture fluid (high-glucose DMEM/heat-inactivated FBS/ heat-inactivated HS /penicillin and streptomycin = 100: 5: 5: 1, v/v) under 5% CO2 at 37 °C. After a period of incubation, PC12 were transferred into a sterile 96-well plate (1 × 10^4 cells per well) and cultured
for 24 h under 5% CO2 at 37 °C. After that, the cell culture fluid was removed, and gradient concentrations of probes (TP yrBDP, TPipBDP, THAIBDP), Aβ in the cell culture fluid (0, 2, 5, 10, 12, and 15 μM), or probes+ Aβ in th e cell culture fluid (5 μM probe + 10 μM Aβ) were added into the 96-well plate and incubat ed for another 24 h.
After that, the gradient concentration of probes or Aβ was removed and MTT (5× MTT was diluted into 1× MTT using dilution buffer, 50 μL per well) was added; t he mix ture was incubated at 37 °C for 4 h. The supernatant was removed, and form azan (150 μL per well) was added; the mix ture was placed on a shaker to be mix ed well. The cell viabilit y was determined by a microplate reader at 490 nm.

[7] = biological target: T1, Aβ1–42 aggregates; assay: In vitro Aβ42 aggregate staining in solution (CLSM); type: binding; conditions: probe 5 µM, ThT 10 µM
Protocol: In Vitro Aβ42 staining in solution
Aβ42 aggregates were prepared according to the literature reported method 2. Aβ42
aggregate solution (20 μL) was added dropwise to a slide (CITOTEST), and then spread
until dry. ThT (10 μM, 20 μL) was added dropwise and spread until it was dry. Prob es
were added dropwise and spread until dr y. Anti-fluorescence quenchin g reagent (10-20
μL) was added dropwise and covered with a cover slide. The fluorescence signal was
captured b y C LSM. λex (ThT) = 488 nm, λem (ThT) = 508-550 nm; λex (probe) = 633 nm,

[8] = biological target: Aβ plaques in brain slices (Homo sapiens, UniProt P05067); assay: In vitro brain slice fluorescence staining, co-staining with ThT; conditions: Tg mice slices, 13-month-old, female
Protocol: To confirm whether the probes could bind Aβ deposits in brain slices, the fluorescence staining experiment were performed using slices of Tg mice (13‐month‐old, female). The staining results were imaged using CLSM. To ensure the accuracy of the staining results, commercial fluorescent dye ThT was used to co‐stain the same sections. The fluorescence signals of the slices were acquired at the same position using different channels of the CLSM. As shown in Figure 4 and Figure S27–S29, Supporting Information, Aβ plaques were highlighted by the probes with a high signal‐to‐background ratio. In contrast, there was no fluorescence signal for wild‐type slices (Figures S30–S32, Supporting Information). Since Aβ plaques are abundantly produced in the hippocampal and cortical regions of the brain, we imaged the corresponding regions of the slices, respectively. The staining results with ThT (Figure 4a,b,i,j,q,r) are shown in green, and the staining results of the probes TPyrBDP (Figure 4c,d), TPipBDP (Figure 4k,l), and THAIBDP (Figure 4s,t) are shown in red. All three probes could stain Aβ plaques both in the hippocampal and cortical regions successfully, and the corresponding merged image further confirmed the staining results. To quantify the colocalization effect, the Pearson correlation coefficients (R‐value) were calculated using ImageJ software. The closer the R‐value is to 1, the better the colocalization of the probe and ThT.
as §1
The paraffin-embedded blank sections (5 μm) were immersed in x ylene for 5 min for deparaffinization and then washed with ethanol for 2 min and water for 5 min. […]
Human blood (1 m L, provided b y China-J apan Friendly Hospital, Beijing, China) was first diluted with 2 m L of PBS solution; the sample was centrifugated for 10 min (8000 rpm) and washed with PBS 5 times to separate red blood cells from serum. […] The supernatant (100 μL) was transferred to 96-well plates, and its ultraviolet absorption (Ex = 490 nm) was evaluated. […]

Aβ plaques in brain slices, sequence (P05067 672-711 limits assumed): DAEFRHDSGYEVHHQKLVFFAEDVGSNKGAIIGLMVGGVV
T1 sequence (P05067 672-713 limits assumed): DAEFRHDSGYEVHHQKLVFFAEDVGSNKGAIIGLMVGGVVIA

Structure (SMILES)	Kd [1] [nM]	hemolysis at 3 h [2] [%]	Kd [3] [nM]	Em, with Aβ [4] [nm]	Em shift, with Aβ [4]	λem blueshift after interacting with Aβ1–42 aggregates ([4]; PBS (10% ethanol))	Fluorescence enhancement (Fold = FL intensity probe+Aβ / probe) [4]	R-value (colocalization with ThT), probe + Aβ group ([5]; PC12 cells with Aβ1–42 aggregates (10 µM))	R-value (colocalization with ThT), control group ([5]; PC12 cells without Aβ)	viability at 24 h [6] [%]	Staining of Aβ1–42 aggregates in solution [7]	Pearson correlation coefficient (R-value) with ThT, hippocampus region [8]	λem redshift after interacting with Aβ1–42 aggregates ([4]; PBS (10% ethanol))	Pearson correlation coefficient (R-value) with ThT, cortex region [8]
Cc1cc(/C=C/c2ccc(N(C)C)cc2)n2c1C=C1C=CC=[N+]1[B-]2(F)F [BAP-1]	44.1													
CC1=CC(C)=[N+]2C1=Cc1c(C)cc(/C=C/c3ccc(N4CCCCC4)s3)n1[B-]2(F)F [TPipBDP]		< 5	28.3 ± 5.94	692	-27 nm	≈ 27 nm	75.54 fold and 75.5 fold	0.84	0.65	> 80				
CC1=CC(C)=[N+]2C1=Cc1c(C)cc(/C=C/c3ccc(N4CCCCCC4)s3)n1[B-]2(F)F [THAIBDP]		< 5	28.2 ± 3.07	701	-22 nm	≈ 22 nm	27.23 fold and 27.2 fold			> 80	stained Aβ1–42 aggregates successfully	0.72		
CC1=CC(C)=[N+]2C1=Cc1c(C)cc(/C=C/c3ccc(N4CCCC4)s3)n1[B-]2(F)F [TPyrBDP]		< 5	54.2 ± 5.82	693	+13 nm		42.48 fold and 42.5 fold			> 80	stained Aβ1–42 aggregates successfully	0.87	≈ 13 nm	0.85
